{"source": "patent US7195879B2", "about": "“Method for identifying modulators of NAv ion channels” (priority 2002, dated 2007)", "key": {"[1]": {"target": "Nav1.3 (Homo sapiens, UniProt Q9NY46)", "sequence (Q9NY46 whole entry, looked up)": "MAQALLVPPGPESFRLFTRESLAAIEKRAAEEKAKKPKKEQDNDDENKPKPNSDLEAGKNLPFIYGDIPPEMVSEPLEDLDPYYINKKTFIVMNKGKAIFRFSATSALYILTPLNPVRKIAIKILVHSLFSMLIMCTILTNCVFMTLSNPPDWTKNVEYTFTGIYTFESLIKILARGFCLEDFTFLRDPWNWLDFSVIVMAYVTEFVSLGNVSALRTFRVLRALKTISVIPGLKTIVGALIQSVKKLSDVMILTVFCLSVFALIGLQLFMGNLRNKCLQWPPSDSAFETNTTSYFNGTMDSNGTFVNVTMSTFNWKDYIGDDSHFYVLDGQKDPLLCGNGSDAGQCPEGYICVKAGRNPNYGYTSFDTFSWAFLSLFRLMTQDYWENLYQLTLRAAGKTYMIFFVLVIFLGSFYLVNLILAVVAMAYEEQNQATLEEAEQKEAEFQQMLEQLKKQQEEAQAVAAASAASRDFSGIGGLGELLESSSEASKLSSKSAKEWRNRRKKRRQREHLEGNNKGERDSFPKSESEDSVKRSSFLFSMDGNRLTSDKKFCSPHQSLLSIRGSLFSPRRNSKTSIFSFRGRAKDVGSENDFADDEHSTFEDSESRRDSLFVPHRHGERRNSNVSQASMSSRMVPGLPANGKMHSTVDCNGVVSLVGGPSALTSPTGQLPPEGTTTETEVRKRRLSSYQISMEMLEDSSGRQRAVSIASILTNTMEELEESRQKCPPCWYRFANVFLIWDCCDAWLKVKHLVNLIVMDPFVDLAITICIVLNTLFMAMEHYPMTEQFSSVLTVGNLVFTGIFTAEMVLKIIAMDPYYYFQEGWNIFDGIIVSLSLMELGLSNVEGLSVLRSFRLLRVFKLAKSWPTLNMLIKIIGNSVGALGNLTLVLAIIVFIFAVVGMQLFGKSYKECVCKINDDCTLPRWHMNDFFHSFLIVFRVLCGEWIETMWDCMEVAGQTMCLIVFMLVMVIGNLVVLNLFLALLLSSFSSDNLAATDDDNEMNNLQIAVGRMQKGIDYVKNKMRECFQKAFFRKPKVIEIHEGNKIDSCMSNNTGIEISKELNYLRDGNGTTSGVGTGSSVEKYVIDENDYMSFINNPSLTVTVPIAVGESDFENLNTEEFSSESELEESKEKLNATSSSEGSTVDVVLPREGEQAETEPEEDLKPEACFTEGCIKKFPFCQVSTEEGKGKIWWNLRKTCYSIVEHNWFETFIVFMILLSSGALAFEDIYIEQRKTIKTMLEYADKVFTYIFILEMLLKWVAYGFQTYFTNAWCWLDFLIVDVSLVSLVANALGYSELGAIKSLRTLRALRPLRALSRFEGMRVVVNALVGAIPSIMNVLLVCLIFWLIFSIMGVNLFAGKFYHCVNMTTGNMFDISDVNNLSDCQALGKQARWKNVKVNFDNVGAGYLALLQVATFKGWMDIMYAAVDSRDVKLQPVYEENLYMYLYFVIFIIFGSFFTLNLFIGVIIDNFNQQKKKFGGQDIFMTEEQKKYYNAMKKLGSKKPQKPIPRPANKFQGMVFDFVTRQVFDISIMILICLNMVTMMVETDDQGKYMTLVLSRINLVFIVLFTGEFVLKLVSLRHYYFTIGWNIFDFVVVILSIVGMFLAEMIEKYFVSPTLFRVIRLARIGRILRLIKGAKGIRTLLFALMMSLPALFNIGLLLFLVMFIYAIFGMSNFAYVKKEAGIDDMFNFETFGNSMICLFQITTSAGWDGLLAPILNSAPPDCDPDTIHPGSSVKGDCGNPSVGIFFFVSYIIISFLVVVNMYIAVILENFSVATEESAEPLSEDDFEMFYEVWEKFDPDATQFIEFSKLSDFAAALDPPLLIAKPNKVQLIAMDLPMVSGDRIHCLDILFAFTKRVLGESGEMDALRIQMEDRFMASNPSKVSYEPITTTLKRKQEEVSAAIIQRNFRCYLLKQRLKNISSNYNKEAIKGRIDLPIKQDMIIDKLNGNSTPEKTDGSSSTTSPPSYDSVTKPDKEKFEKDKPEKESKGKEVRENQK", "format": "cell-based"}, "[2]": {"tested_on": "IMR-32 cells grown in the presence of RA (fast transient inward currents)", "test": "Whole cell voltage clamp of inward currents, IMR-32 cells grown in RA", "format": "cell-based, human", "method": "The endogenous voltage gated Na currents expressed in IMR-32 cells grown in the presence or absence of 1 μM RA were measured using standard whole cell voltage clamp techniques (Hamill et al. (1981). The whole cell patch clamp technique was used to record voltage-activated currents from IMR-32 cells maintained for two or more days on 12 mm glass coverslips in the presence or absence of RA (1 μM). Cells were visualized using a Nikon Diaphot 300 with DIC Nomarski optics. The standard physiological saline (1 Ca tyrodes (“Tyrodes”) contains: 130 mM NaCl, 4 mM KCl, 1 mM CaCl2, 1.2 mM MgCl2, and 10 mM hemi-Na-HEPES (pH 7.3, 295–300 mOsm as measured using a Wescor 5500 vapor-pressure (Wescor, Inc., Logan, Utah)). Recording electrodes are fabricated from borosilicate capillary tubing (R6; Garner Glass, Claremont, Calif.), the tips are coated with dental periphery wax (Miles Laboratories, South Bend, Ind.), and have resistances of 1 to 2 MΩ when containing an intracellular saline designed to block outward currents: 140 mM CsCl, 0.483 mM CaCl2, 2 mM MgCl2, 10 mM HEPES free acid and 1 mM K4-BAPTA (100 nM free Ca^+2); pH 7.4, with dextrose added to achieve 290 mOsm). Current and voltage signals are detected and filtered at 2 kHz with an Axopatch 1D patch-clamp amplifier (Axon Instruments, Foster City, Calif.), digitally recorded with a DigiData 1200B laboratory interface (Axon Instruments) and PC compatible computer system and stored on magnetic disk for off-line analysis. Data acquisition and analysis are performed with PClamp software.\nThe total membrane capacitance (Cm) was determined as the difference between the maximum current after a 30 mV hyperpolarizing voltage ramp from −100 mV (generated at a rate of 10 mV/ms) and the steady state current at the final potential (−130 mV) (Dubin et al. (1999)).\nFamilies of voltage-gated inward currents were obtained using a standard P/−4 protocol from −100 mV. Depolarizing voltage steps in increments of 10 mV were applied from a holding potential of −100 mV. Steady state inactivation was elicited by measuring the peak current at 0 mV after a 500 msec pre-pulse voltage between −140 and −20 mV in increments of 10 mV."}, "[3]": {"tested_on": "IMR-32 cells grown in the absence of RA (inward currents)", "format": "cell-based, human"}, "[4]": {"tested_on": "Nav", "format": "cell-based, human"}, "[5]": {"target": "Nav1.7 (Homo sapiens, UniProt Q15858)", "sequence (Q15858 whole entry, looked up)": "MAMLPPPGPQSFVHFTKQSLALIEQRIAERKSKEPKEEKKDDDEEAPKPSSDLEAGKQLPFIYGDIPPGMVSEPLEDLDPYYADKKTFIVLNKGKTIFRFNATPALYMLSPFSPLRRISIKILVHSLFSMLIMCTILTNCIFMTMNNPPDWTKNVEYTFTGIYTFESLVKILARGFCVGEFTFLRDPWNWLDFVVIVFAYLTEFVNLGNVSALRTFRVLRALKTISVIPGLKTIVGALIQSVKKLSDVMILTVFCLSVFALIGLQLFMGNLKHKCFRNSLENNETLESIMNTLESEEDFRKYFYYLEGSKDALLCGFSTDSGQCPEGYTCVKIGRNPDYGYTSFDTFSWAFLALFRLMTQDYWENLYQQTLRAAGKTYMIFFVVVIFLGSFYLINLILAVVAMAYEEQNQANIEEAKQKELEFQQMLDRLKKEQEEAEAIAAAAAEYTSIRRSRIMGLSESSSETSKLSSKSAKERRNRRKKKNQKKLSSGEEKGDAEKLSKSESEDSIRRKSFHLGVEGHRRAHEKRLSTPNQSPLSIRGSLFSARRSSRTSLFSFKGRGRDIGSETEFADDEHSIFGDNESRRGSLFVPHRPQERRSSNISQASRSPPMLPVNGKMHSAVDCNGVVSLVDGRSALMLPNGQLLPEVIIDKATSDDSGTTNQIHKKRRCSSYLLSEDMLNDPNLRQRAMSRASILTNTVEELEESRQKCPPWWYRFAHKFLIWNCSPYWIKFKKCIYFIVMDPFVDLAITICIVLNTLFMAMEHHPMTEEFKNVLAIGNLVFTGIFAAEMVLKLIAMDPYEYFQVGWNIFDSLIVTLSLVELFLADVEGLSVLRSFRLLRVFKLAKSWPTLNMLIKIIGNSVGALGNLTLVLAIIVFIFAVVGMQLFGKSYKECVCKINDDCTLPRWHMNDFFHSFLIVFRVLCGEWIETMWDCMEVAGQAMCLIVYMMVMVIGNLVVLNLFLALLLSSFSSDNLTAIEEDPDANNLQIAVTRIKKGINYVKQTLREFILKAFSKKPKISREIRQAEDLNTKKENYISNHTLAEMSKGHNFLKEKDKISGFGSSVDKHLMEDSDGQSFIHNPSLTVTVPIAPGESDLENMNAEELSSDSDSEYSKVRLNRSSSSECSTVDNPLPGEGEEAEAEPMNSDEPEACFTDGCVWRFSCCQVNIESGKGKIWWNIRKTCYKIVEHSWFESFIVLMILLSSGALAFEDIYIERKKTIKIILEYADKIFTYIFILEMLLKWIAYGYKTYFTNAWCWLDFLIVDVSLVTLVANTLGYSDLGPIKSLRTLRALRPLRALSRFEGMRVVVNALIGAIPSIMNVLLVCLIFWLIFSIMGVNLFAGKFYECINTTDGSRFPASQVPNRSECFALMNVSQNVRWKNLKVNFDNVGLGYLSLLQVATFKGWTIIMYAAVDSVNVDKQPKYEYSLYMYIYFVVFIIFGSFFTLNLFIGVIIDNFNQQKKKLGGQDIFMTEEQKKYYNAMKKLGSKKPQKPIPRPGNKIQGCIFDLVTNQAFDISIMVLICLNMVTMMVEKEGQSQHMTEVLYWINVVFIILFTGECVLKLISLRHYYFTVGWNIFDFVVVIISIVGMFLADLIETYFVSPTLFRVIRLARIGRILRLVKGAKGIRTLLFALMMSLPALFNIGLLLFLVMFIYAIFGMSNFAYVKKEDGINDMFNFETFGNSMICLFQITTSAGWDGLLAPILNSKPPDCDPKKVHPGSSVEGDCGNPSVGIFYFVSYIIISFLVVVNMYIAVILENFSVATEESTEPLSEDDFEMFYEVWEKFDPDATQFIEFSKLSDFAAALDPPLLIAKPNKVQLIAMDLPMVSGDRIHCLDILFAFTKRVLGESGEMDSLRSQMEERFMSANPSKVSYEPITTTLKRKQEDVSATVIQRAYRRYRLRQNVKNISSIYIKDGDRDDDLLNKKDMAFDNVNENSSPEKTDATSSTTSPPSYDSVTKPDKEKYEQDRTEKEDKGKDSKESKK"}, "[6]": {"tested_on": "TTX-R inward current (calcium currents)", "test": "Whole cell voltage clamp, block of TTX-R inward current in IMR-32 cells", "format": "cell-based, human", "conditions": "5 μM"}}, "note": "Values joined by “and” are separate entries in the source; they are usually repeats but may differ in a detail not shown here. Identical values can stand only once. “Also recorded” adds a separate entry of the source. Like-named read-outs stand apart in the source and are kept apart here.", "data": [{"smiles": "NC1=N[C@H](O)[C@H]2[C@H]3O[C@]4(O)O[C@@H]([C@@H](O)[C@@]2(N1)[C@@H]4O)[C@]3(O)CO", "note": "[TTX, tetrodotoxin]", "values": [{"measurement": "block of veratridine-induced depolarization / fluorescence signal", "setting": "[1]", "result": "completely suppressed; also recorded: completely blocked; also recorded: nearly completely blocks"}, {"measurement": "proportion of the veratridine-induced response blocked", "setting": "[1]", "result": "90% and 88% and 89%"}, {"measurement": "steepness of the dose response relationship", "setting": "[1]", "result": "0.76 and 0.89 and 0.79"}, {"measurement": "IC50", "setting": "[1]; read-out: IC50, block of veratridine-stimulated sodium influx", "result": 3.3, "unit": "nM"}, {"measurement": "IC50", "setting": "[1]; read-out: concentration to half block the veratridine-induced increase in fluorescence (IC50)", "result": 2.8, "unit": "nM"}, {"measurement": "TTX-S component of inward currents, proportion of total current", "setting": "[2]", "result": "36+/−7%"}, {"measurement": "block of inward currents", "setting": "[2]", "result": 92, "unit": "%"}, {"measurement": "effect on inward currents", "setting": "[2]", "result": "little effect"}, {"measurement": "TTX-S component of inward currents, proportion of total current", "setting": "[3]", "result": "17+/−6%"}, {"measurement": "block of inward currents", "setting": "[3]", "result": "only partially blocked"}, {"measurement": "effect on FRET signal", "setting": "[4]", "result": "dose dependent decreases"}, {"measurement": "block of veratridine induced signal", "setting": "[5]", "result": "nearly completely blocks"}, {"measurement": "proportion of the veratridine-induced response blocked", "setting": "[5]", "result": "82% and 80%"}, {"measurement": "steepness of the dose response relationship", "setting": "[5]", "result": "1.0 and 1.5"}]}, {"smiles": "COCC(=O)O[C@]1(CCN(C)CCCc2nc3ccccc3[nH]2)CCc2cc(F)ccc2[C@@H]1C(C)C", "note": "[mibefradil]", "values": [{"measurement": "block of the TTX-R current", "setting": "[6]", "result": "in part"}]}, {"smiles": "CC1=C(/C=C/C(C)=C\\C=C\\C(C)=C\\C(=O)O)C(C)(C)CCC1", "note": "[RA, 9-cis RA]", "values": [{"measurement": "peak inward currents", "setting": "[2]; cells grown for more than two weeks in RA, tested in Tyrodes, n=24, vs -43.3 without RA, p<0.02", "result": "−75.3+/−10.6 pA/pF"}]}]}
